In US5962469A, “Cyclic nitrones” (Hoechst Marion Roussel Inc., priority 1997, dated 1999):

What was measured:
[1] = Inhibition of lipid peroxidation (soybean phosphatidylcholine liposomes); format: biochemical; conditions: Fe2+-initiated, 37° C., 15 min time point, TBARS, read-out: LIPID OX (IC50)
Procedure: 1. Inhibition of lipid peroxidation
For determination of the ability to inhibit lipid peroxidation, liposomes were prepared from soybean phosphatidylcholine by ethanol injection. An aliquot of phosphatidylcholine was dried in a small glass vial under N2. The lipid was resolubilized in ethanol at a volume of 10 ml per ml of liposomes. Typically, 8 ml volumes of liposomes were prepared per tube and then all preparations were combined to provide a homogenous mixture for the assay. The ethanol containing the lipid was taken up in a Hamilton syringe and injected into the appropriate volume of 50 mM NaCl/10 mM Tris, pH 7.0 at 37° C. with mixing to achieve a final lipid concentration of 0.563 mM.
The liposomes were added to 25 ml beakers in a Dubnoff metabolic shaker at 37° C. To the liposomes were added the test compound (in ethanol or buffer), histidine-FeCl3 250:[…] final), FeCl2 ([…] final, prepared in N2 purged water) and sufficient buffer to achieve a final lipid concentration of 0.5 mM. Oxidations were initiated by the addition of Fe^2^+ and carried out under an air atmosphere with shaking. One ml aliquots were removed at 0,2,4,6,8,10,12 and 15 min and added to 2 ml of 0.67% thiobarbituric acid : 10% trichloroacetic acid (2:1) in 0.25 N HCl containing 0.05 ml of 2% BHT to terminate oxidation. Thomas, C. E., McLean, L. R., Parker, R. A., and Ohlweiler, D. F. (1992) Lipids 27, 543-550.
The samples were heated at 100° C. for 20 min in 13 x 100 mm borosilicate glass tubes covered with marbles to prevent evaporation. After cooling, the tubes were centrifuged at 3,000 rpm for 10 min and the absorbance of the resultant supernatant read at 532 nm-580 nm. Quantitation of thiobarbituric acid reactive substances (TBARS) was determined by comparison to a standard curve of malondialdehyde equivalents generated by acid catalyzed hydrolysis of 1,1,3,3-tetraethoxypropane. The IC50 was determined using the 15 min time point with the computer program GraphPad INPLOT 4. This program uses a nonlinear regression with sigmoidal curve on a semilogarithmic scale.

[2] = OH radical trapping (inhibition of the bleaching of p-NDA, primary assay); format: biochemical; conditions: for IC50: IC50, Fenton chemistry (Fe2+/H2O2), pH 7.0
Procedure: 2. Assessment as .OH Traps
A. Inhibition of the bleaching of p-NDA
Cyclic nitrones were evaluated for .OH trapping activity by a variety of tests. The primary assay was dependent upon the ability of the compounds to inhibit the .OH-dependent bleaching of p-NDA. Bors, W., Michel, C., and Saran, M. (1979) J. Biochem. 95, 621-627. The p-NDA was prepared at 1 mM in 50 mM NaCl, pH 7.0. The hydroxyl radical was generated using Fenton chemistry (Fe^2+ /H2 O2). FeCl2 is dissolved in N2 purged, double distilled […] to a final concentration of 2.5 mM. H2 O2 was prepared from a 30% stock solution (8.8 M) at 1.25 mM in the buffer. Test compounds were solubilized in buffer or ethanol at a concentration of 1 M or 5 M, depending upon solubility.
Assay mixtures in glass cuvettes contained solutions of 0.02 ml of H2 O2, 0.02 ml of test compound, 0.10 ml of p-NDA and 50 mM NaCl, pH 7.0 to a final volume of 0.98 ml. The oxidation was initiated by the addition of 0.02 ml of Fe^2+ and the bleaching of p-NDA was monitored as the loss in absorbance at 440 nm for 100 sec. To generate concentration curves, serial dilutions of the test compounds were made such that a constant volume of 0.02 ml was added to the reaction mixture. Ethanol itself is an .OH trap, thus controls contained an equal volume of ethanol for any test compound requiring this vehicle. The IC50 values for the nitrones were determined by GraphPad InPlot 4 and represent the amount of spin trap required to inhibit the bleaching of p-NDA by 50%.

Sedation in rats = format: in vivo
[3] = Duration of in vivo activity of compound A; design: species or system rats; conditions: relative to the sedative effect
[4] = compared with PBN; cited from earlier work
[5] = compared with PBN; cited from earlier work; remark: listed apart in the source
Cerebellar Granule Cells [6] = assay: Protection of cerebellar granule cells against Fe2+-induced oxidation (TBARS); format: cell-based; conditions: Rattus norvegicus, 0.75 h, read-out: TBARS IC50
Procedure: (§1) 3. Protection of cerebellar granule cells against oxidative damage
(§2) The cyclic nitrones were tested for their ability to protect primary cultures of cerebellar granule cells against oxidative injury induced by treatment with Fe^2+. Cerebellar granule cell cultures were prepared from 8 day old rats as previously described. […] Briefly, 8-10 cerebella were removed and placed in a Krebs-Ringer bicarbonate medium supplemented with BSA and MgSO4. Cerebella were finely chopped and digested with a trypsin/Krebs-Ringer solution. Cells were then dispersed by trituration in Krebs-Ringer containing DNase, MgSO4 and trypsin inhibitor followed by plating at a density of 1×10^6 cells/well in poly-l-lysine coated plate in MEM/10% fetal bovine serum/KCl/glutamine/gentamicin. Media was replaced at 24 hours and cytosine arabinoside added. Experiments were conducted with cells 8-10 days in vitro.
(§3) The nitrones were added in either Locke's solution or in 20% β-cyclodextrins and allowed to incorporate into the cells for 30 min. At this time 20 μl of a 5 mM stock solution of ferrous chloride was added for a final concentration of 100 μM. After 45 min the media was removed and added to 1.5 ml of TBA/TCA (2:1) with 25 μl of 2% BHT and TBARS determined as described above. The absorbance of the control cells (no iron) was subtracted from the iron treated cells and this value taken as the denominator to determine the concentration of nitrone required to inhibit oxidation by 50%.

Cerebellar Granule Cells [7] = assay: Protection of cerebellar granule cells against Fe2+-induced damage (viability, MTT); format: cell-based; conditions: Rattus norvegicus, read-out: Viability IC50
Procedure: as §1, §2, §3
Fresh MEM media was added to the cells along with 100 μl of MTT. After 4 hrs, 1 ml of cold isopropanol/0.04 N HCl was added, the cells scraped, mixed well and transferred to 13×100 mm glass test tubes. The absorbance resulting from mitochondrial reduction of the MTT (570 nm minus 630 nm) was measured as an assessment of viability. The % cell death was determined by comparison to the absorbance of cells to which no iron was added.

[8] = Metabolites of A isolated from an in vivo experiment; conditions: relative to Metabolite 2
Text: Indeed, from the onset, a primary goal has been to find a potent antioxidant which lacks this side effect observed with compound A. In this regard, the following observations were of special interest. […] In order to investigate this possibility, the major metabolite C and a minor, possibly secondary, metabolite (Metabolite 2) were isolated from an in vivo experiment, purified by HPLC, and assigned the structures shown below (FIG. 3). [drawing 16]

Solubility = format: physicochemical; conditions: for water solubility: noted during work-up
[9] = test system: neuronal cell loss and neurologic deficits; conditions: stroke, gerbil model; cited from earlier work
[10] = ESR spectroscopy, gerbils; cited from earlier work
[11] = test system: endotoxin associated mortality; conditions: rats; cited from earlier work
ischemia-induced damage = conditions: vitamin E supplementation; cited from earlier work
loss of cell viability = conditions: prior administration for vitamin E; cited from earlier work
[12] = Fe2+-induced damage, 100 μM ferrous chloride, 45 min
[13] = Fe2+-induced damage, MTT reduction

Row | Compound | IC50 [1] | IC50 (Cerebellar Granule Cells [6]; [12]) | IC50 (Cerebellar Granule Cells [7]; [13]) | other results
1 | CC1(C)Cc2ccccc2C=[N+]1[O-] [A, 3,4-dihydro-3,3-dimethylisoquinoline N-oxide] | 1670 µM | – | – | IC50 [2]: 2830 µM; sedation (Sedation in rats; high doses in rats): causes sedation when administered in high doses in rats; time course of sedative effect (Sedation in rats; rats): peaks and declines rapidly; duration of in vivo activity [3]: persists for a considerably longer period of time; inhibition of lipid oxidation relative to PBN [4]: more potent inhibitors of lipid oxidation; hydroxyl radical trapping relative to PBN [5]: better hydroxyl radical traps
2 | [O-][N+]1=Cc2ccccc2CC12CCCCC2 [B, spiro [cyclohexane-1,3']3,4-dihydroisoquinoline N-oxide, reference compound] | – | – | – | inhibition of lipid oxidation relative to PBN [4]: more potent inhibitors of lipid oxidation; hydroxyl radical trapping relative to PBN [5]: better hydroxyl radical traps
3 | CC1(C)C(O)c2ccccc2C=[N+]1[O-] (centres unmarked) [C, 3,3-Dimethyl-3,4-dihydroisoquinolin-4-ol, N-oxide] | – | 1900 µM | 1550 µM | abundance of metabolite in vivo [8]: much more abundant in vivo than Metabolite 2; water solubility (Solubility): relatively high water solubility
4 | CC1(C)Cc2c(ccc3ccccc23)C=[N+]1[O-] [Compound 9, 2,2-Dimethyl-1,2-dihydrobenzo[f]isoquinoline N-oxide] | 100 µM | – | – | solubility (Solubility; reason for OH radical trapping not measured): low solubility
5 | CC1(C)Cc2ccc3ccccc3c2C=[N+]1[O-] [Compound 10, 3,3-Dimethyl-3,4-dihydrobenzo[h]isoquinoline N-oxide] | 69 µM | – | – | –
6 | CC1(C)Cc2ccsc2C=[N+]1[O-] [Compound 13, 5,5-Dimethyl-4,5-dihydrothieno[2,3-c]pyridine N-oxide] | 1720 µM | – | – | IC50 [2]: 4340 µM
7 | Cc1cc2c(c(C)c1O)CC(C)(C)[N+]([O-])=C2 [Compound 15, 3,3,5,7-Tetramethyl-3,4-dihydroisoquinolin-6-ol N-oxide] | – | 220 µM | 190 µM | –
8 | Cc1cc2c(c(C)c1O)CC(C)(C)N=C2 [Compound 38, 3,3,5,7-Tetramethyl-3,4-dihydroisoquinolin-6-ol] | – | – | – | water solubility (Solubility): high water solubility
9 | CC1(C)Cc2sccc2C=[N+]1[O-] [Compound 48, 6,6-Dimethyl-6,7-dihydrothieno[3,2-c]pyridine N-oxide] | 1590 µM | – | – | IC50 [2]: 14400 µM
10 | CC1(C)Cc2ccoc2C=[N+]1[O-] [Compound 53, 5,5-Dimethyl-4,5-dihydrofuro[2,3-c]pyridine N-oxide] | 1070 µM | – | – | OH RADICAL TRAPPING (effect) ([2]; at 20 mM): no effect
11 | CC(=O)OC1c2ccccc2C=[N+]([O-])C1(C)C (centres unmarked) [Compound 76, 4-Acetoxy-3,3-dimethyl-3,4-dihydroisoquinoline, N-oxide] | – | 839 µM | 864 µM | –
12 | CC1(C)C(=O)c2ccccc2C=[N+]1[O-] [Compound 77, 3,3-Dimethyl-3H-isoquinolin-4-one, N-oxide] | – | 830 µM | 385 µM | –
13 | [O-][N+]1=Cc2ccccc2C(O)C12CCCCC2 (centres unmarked) [D, 3,4-dihydroisoquinolin-4-ol-3-spirocyclohexane, N-oxide] | – | 520 µM | 588 µM | –
14 | O=C1c2ccccc2C=[N+]([O-])C12CCCCC2 [E, 3H-isoquinolin-4-one-3-spirocyclohexane, N-oxide] | – | 37 µM | 39 µM | –
15 | [O-][N+]1=Cc2ccccc2C(O)C12CCCC2 (centres unmarked) [F, 3,4-dihydroisoquinolin-4-ol-3-spirocyclopentane, N-oxide] | – | 771 µM | 817 µM | –
16 | O=C1c2ccccc2C=[N+]([O-])C12CCCC2 [G, 3H-isoquinolin-4-one-3-spirocyclopentane, N-oxide] | – | 102 µM | 105 µM | –
17 | CC(C)(C)[N+]([O-])=Cc1ccccc1 [PBN, alpha-phenyl-tert-butyl nitrone] | – | – | – | IC50 (Cerebellar Granule Cells [6]): 2600 µM; IC50 (Cerebellar Granule Cells [7]): 2600 µM; effect on neuronal cell loss and neurologic deficits [9]: can significantly ameliorate neuronal cell loss and neurologic deficits; trapping of lipid-derived radicals in cortical tissue [10]: trap lipid-derived radicals in cortical tissue; reduction of endotoxin associated mortality [11]: reduce endotoxin associated mortality in rats
18 | Cc1c(C)c2c(c(C)c1O)CCC(C)(CCCC(C)CCCC(C)CCCC(C)C)O2 (stereo not drawn) [vitamin E, α-tocopherol] | – | – | – | protective effect against ischemia-induced damage (ischemia-induced damage): some protective effect; protection against loss of cell viability (loss of cell viability): partial protection
